Measurements as given in patent US6403535B1, “Substituted thiazol(in) ylideneamino sulfonylamino (thio)carbonyl-triazolinones” (Bayer Aktiengesellschaft, priority 1998, dated 2002).

Key:
Amaranthus [1] = test: Pre-emergence test/greenhouse; format: in vivo; conditions: 504 h, after three weeks, read-out: degree of damage, Amaranthus; for pest or weed control at 125 g/ha: 125 g of a.i./ha
Method: (§1) To produce a suitable preparation of active compound, 1 part by weight of active compound is mixed with the stated amount of solvent, the stated amount of emulsifier is added and the concentrate is diluted with water to the desired concentration.
(§2) Seeds of the test plants are sown in normal soil. After about 24 hours, the soil is sprayed with the preparation of active compound such that the particular amount of active compound desired is applied per unit area. The concentration of the spray liquor is chosen so that the particular amount of active compound desired is applied in 1000 liters of water per hectare.
(§3) After three weeks, the degree of damage to the plants is rated in % damage in comparison to the development of the untreated control.
(§4) 0%=no effect (like untreated control)

Echinochloa [2] = test: Pre-emergence test/greenhouse; format: in vivo; conditions: 504 h, after three weeks, read-out: degree of damage, Echinochloa; for pest or weed control at 125 g/ha: 125 g of a.i./ha
Method: as §1, §2, §3, §4

Setaria [3] = test: Pre-emergence test/greenhouse; format: in vivo; conditions: 60 g of a.i./ha, after three weeks
Method: as §1, §2, §3, §4

Matricaria = test: Pre-emergence test/greenhouse; format: in vivo; conditions: 504 h, after three weeks, read-out: degree of damage, Matricaria; for pest or weed control at 125 g/ha: 125 g of a.i./ha
Method: as §1, §2, §3, §4

Veronica [4] = test: Pre-emergence test/greenhouse; format: in vivo; conditions: 504 h, after three weeks, read-out: degree of damage, Veronica; for pest or weed control at 125 g/ha: 125 g of a.i./ha
Method: as §1, §2, §3, §4

Polygonum = test: Post-emergence test/greenhouse; format: in vivo; conditions: 60 g of a.i./ha, after three weeks
Method: as §1
(§5) Test plants of a height of 5 -15 cm are sprayed with the preparation of active compound such that the particular amounts of active compound desired are applied per unit area. The concentration of the spray liquor is chosen so that the particular amounts of active compound desired are applied in 1000 l of water/ha.
as §3, §4

Sorghum = test: Post-emergence test/greenhouse; format: in vivo; conditions: 60 g of a.i./ha, after three weeks
Method: as §1, §5, §3, §4

Amaranthus [5] = test: Post-emergence test/greenhouse; format: in vivo; conditions: 504 h, after three weeks, read-out: degree of damage, Amaranthus; for pest or weed control at 60 g/ha: 60 g of a.i./ha; for pest or weed control at 125 g/ha: 125 g of a.i./ha
Method: as §1, §5, §3, §4

Echinochloa [6] = test: Post-emergence test/greenhouse; format: in vivo; conditions: 60 g of a.i./ha, after three weeks
Method: as §1, §5, §3, §4

Veronica [7] = test: Post-emergence test/greenhouse; format: in vivo; conditions: 60 g of a.i./ha, after three weeks
Method: as §1, §5, §3, §4

weeds [8] = test: Pre-emergence test, activity against weeds; format: in vivo
Method: as §1, §2, §3, §4

weeds [9] = test: Post-emergence test, activity against weeds; format: in vivo
Method: as §1, §5, §3, §4

Setaria [10] = test: Post-emergence test/greenhouse; format: in vivo; conditions: after three weeks
Method: as §1, §5, §3, §4

Stellaria = test: Post-emergence test/greenhouse; format: in vivo; conditions: 504 h, after three weeks, read-out: degree of damage, Stellaria; for pest or weed control at 60 g/ha: 60 g of a.i./ha; for pest or weed control at 125 g/ha: 125 g of a.i./ha
Method: as §1, §5, §3, §4

Abutilon = test: Post-emergence test/greenhouse; format: in vivo; conditions: 504 h, after three weeks, read-out: degree of damage, Abutilon; for pest or weed control at 60 g/ha: 60 g of a.i./ha; for pest or weed control at 125 g/ha: 125 g of a.i./ha
Method: as §1, §5, §3, §4

Solanum = test: Post-emergence test/greenhouse; format: in vivo; conditions: 504 h, after three weeks, read-out: degree of damage, Solanum; for pest or weed control at 125 g/ha: 125 g of a.i./ha
Method: as §1, §5, §3, §4

Chenopodium [11] = test: Post-emergence test/greenhouse; format: in vivo; conditions: 504 h, after three weeks, read-out: degree of damage, Chenopodium; for pest or weed control at 125 g/ha: 125 g of a.i./ha
Method: as §1, §5, §3, §4

Chenopodium [12] = test: Pre-emergence test/greenhouse; format: in vivo; conditions: 125 g of a.i./ha, after three weeks
Method: as §1, §2, §3, §4

Digitaria = test: Pre-emergence test/greenhouse; format: in vivo; conditions: 125 g of a.i./ha, after three weeks
Method: as §1, §2, §3, §4

## CCOc1nn(C(=O)NS(=O)(=O)/N=c2\sccn2CCCF)c(=O)n1C [Example 1]
Amaranthus [1]; 60 g of a.i./ha
  pest or weed control at 60 g/ha: 100%
Echinochloa [2]; 60 g of a.i./ha
  pest or weed control at 60 g/ha: 100%
Setaria [3]
  degree of damage, Setaria: 100%
Matricaria; 60 g of a.i./ha
  pest or weed control at 60 g/ha: 100%
Veronica [4]; 60 g of a.i./ha
  pest or weed control at 60 g/ha: 100%
Polygonum
  degree of damage, Polygonum: 90%
Sorghum
  degree of damage, Sorghum: 95%
Amaranthus [5]
  pest or weed control at 60 g/ha: 95%
Echinochloa [6]
  degree of damage, Echinochloa: 95%
Veronica [7]
  degree of damage, Veronica: 90%
other
  melting point: 178 °C
Weeds [8]
  activity against weeds: very strong activity
Weeds [9]
  activity against weeds: very strong activity

## CCCc1nn(C(=O)NS(=O)(=O)/N=c2\sccn2CCC)c(=O)n1C [Example 2]
Amaranthus [5]
  pest or weed control at 60 g/ha: 90%
Setaria [10]; 60 g of a.i./ha
  degree of damage, Setaria: 90%
Stellaria
  pest or weed control at 60 g/ha: 90%
Abutilon
  pest or weed control at 60 g/ha: 90%
Solanum; 60 g of a.i./ha
  pest or weed control at 60 g/ha: 95%
Weeds [9]
  activity against weeds: very strong activity

## CCCn1ccs/c1=N\S(=O)(=O)NC(=O)n1nc(OC(C)C)n(C)c1=O [Example 9]
Amaranthus [5]
  pest or weed control at 60 g/ha: 90%
Chenopodium [11]; 60 g of a.i./ha
  pest or weed control at 60 g/ha: 80%
Stellaria
  pest or weed control at 60 g/ha: 90%
Abutilon
  pest or weed control at 60 g/ha: 90%
Weeds [9]
  activity against weeds: very strong activity

## CCCn1ccs/c1=N\S(=O)(=O)NC(=O)n1nc(OC)n(C2CC2)c1=O [Example 29]
Amaranthus [1]
  pest or weed control at 125 g/ha: 100%
Echinochloa [2]
  pest or weed control at 125 g/ha: 95%
Matricaria
  pest or weed control at 125 g/ha: 95%
Chenopodium [12]
  degree of damage, Chenopodium: 100%
Veronica [4]
  pest or weed control at 125 g/ha: 100%
Weeds [8]
  activity against weeds: very strong activity

## CCCn1ccs/c1=N\S(=O)(=O)NC(=O)n1nc(OCC)n(C2CC2)c1=O [Example 30]
Amaranthus [1]
  pest or weed control at 125 g/ha: 100%
Digitaria
  degree of damage, Digitaria: 90%
Echinochloa [2]
  pest or weed control at 125 g/ha: 95%
Matricaria
  pest or weed control at 125 g/ha: 100%
Chenopodium [12]
  degree of damage, Chenopodium: 100%
Veronica [4]
  pest or weed control at 125 g/ha: 100%
Weeds [8]
  activity against weeds: very strong activity

## CCCn1ccs/c1=N\S(=O)(=O)NC(=O)n1nc(OC(C)C)n(C2CC2)c1=O [Example 33]
Amaranthus [1]
  pest or weed control at 125 g/ha: 100%
Echinochloa [2]
  pest or weed control at 125 g/ha: 80%
Matricaria
  pest or weed control at 125 g/ha: 100%
Chenopodium [12]
  degree of damage, Chenopodium: 100%
Veronica [4]
  pest or weed control at 125 g/ha: 95%
Amaranthus [5]
  pest or weed control at 125 g/ha: 100%
Setaria [10]; 125 g of a.i./ha
  degree of damage, Setaria: 80%
Chenopodium [11]
  pest or weed control at 125 g/ha: 100%
Stellaria
  pest or weed control at 125 g/ha: 95%
Abutilon
  pest or weed control at 125 g/ha: 100%
Solanum
  pest or weed control at 125 g/ha: 95%
Weeds [8]
  activity against weeds: very strong activity
Weeds [9]
  activity against weeds: very strong activity

## CCCn1ccs/c1=N\S(=O)(=O)NC(=O)n1nc(OC2CC2)n(C2CC2)c1=O [Example 34]
Amaranthus [5]
  pest or weed control at 125 g/ha: 100%
Setaria [10]; 125 g of a.i./ha
  degree of damage, Setaria: 70%
Chenopodium [11]
  pest or weed control at 125 g/ha: 100%
Stellaria
  pest or weed control at 125 g/ha: 100%
Abutilon
  pest or weed control at 125 g/ha: 95%
Solanum
  pest or weed control at 125 g/ha: 100%
Weeds [9]
  activity against weeds: very strong activity

## CCCn1ccs/c1=N\S(=O)(=O)NC(=O)n1nc(C2CC2)n(C)c1=O [Example 41]
Amaranthus [5]
  pest or weed control at 125 g/ha: 90%
Setaria [10]; 125 g of a.i./ha
  degree of damage, Setaria: 70%
Stellaria
  pest or weed control at 125 g/ha: 95%
Abutilon
  pest or weed control at 125 g/ha: 90%
Solanum
  pest or weed control at 125 g/ha: 90%
Weeds [9]
  activity against weeds: very strong activity
